Data on four compounds can be found in patent US11547681B2, “N-acylethanolamide derivatives and uses thereof” (ELIEM THERAPEUTICS, INC., priority 2016, dated 2023).

Some results are limits rather than exact numbers.

The term half-life denotes how long it takes for the measured level to halve. What is called microsomal CLint is the rate of metabolic loss divided by the concentration.

Data set [1] is described as follows: Plasma stability (37° C., pH 7.4), human. The following applies: for half-life at 1 μM: both sexes, human, plasma, pH 7.4, human plasma, read-out: Half-life; for % Remaining of Initial: 1 μM, n = 1. Format: in vitro ADME. On the procedure: (§1) Studies were carried out in mixed-gender human plasma (Lot #GLP530-5), male Sprague-Dawley rat (Lot #RAT297944, RAT313140), male CD-1 mouse (Lot #MSE237700), and male Beagle dog (Lot #BGL87670, BGL82614), collected on sodium heparin. Plasma was adjusted to pH 7.4 prior to initiating the experiments. DMSO stocks were first prepared for the test articles. Aliquots of the DMSO solutions were dosed into 700 μL of plasma, which had been pre-warmed to 37° C., at a final test article concentration of 1 μM. […] Samples were stored at 4° C. until the end of the experiment. After the final time point was sampled, the plate was mixed and then centrifuged at 3,000 rpm for 10 minutes. Calibration standards were prepared in matched matrix. […] Analytical conditions are outlined in Appendix 8-1.
as §1, with “#AS1650-2),” for “#GLP530-5),”, “#RAT297944),” for “#RAT297944, RAT313140),”, “CD-I” for “CD-1”, “#BGL91384),” for “#BGL87670, BGL82614),”, “10-1.” for “8-1.”
Studies were carried out in mixed-gender human plasma (Lot #AS1650-2), male Sprague-Dawley rat (Lot #RAT297944), male CD-1 mouse (Lot #MSE237700), and male Beagle dog (Lot #BGL91384), collected on sodium heparin. Plasma was adjusted to pH 7.4 prior to initiating the experiments. DMSO stocks were first prepared for test articles. […] Samples were stored at 4° C. until the end of experiment. After the final time point was sampled, the plate was mixed and then centrifuged at 3,000 rpm for 10 minutes. Calibration standards were prepared in matched matrix. […] Analytical conditions are outlined in Appendix 13-1.
Studies were carried out in mixed-gender human plasma (Lot #AS 1650-2), male Sprague-Dawley rat (Lot #RAT320835), male CD-1 mouse (Lot #MSE260693), and 6 male Beagle dog (Lot #BGL91384), on sodium heparin. Plasma was adjusted to pH 7.4 prior to initiating the experiments. DMSO stocks were first prepared for the test articles. Aliquots of the DMSO solutions were dosed into 700 μL of plasma, which had been pre-warmed to 37° C., at a final test article concentration of 1 μM. […] Samples were stored at 4° C. until the end of the experiment. After the final time point was sampled, the plate was mixed and then centrifuged at 3,000 rpm for 10 minutes. Calibration standards were prepared in matched matrix. […] Analytical conditions are outlined in Appendix 17-1.

The nature of data set [2]: in vitro. On the procedure:
The reaction mixture, minus cofactors, was prepared as described below. The test article was added into the reaction mixture at a final concentration of 1 μM. […] An aliquot of the reaction mixture (without cofactor cocktail) was equilibrated in a shaking water bath at 37° C. for 3 minutes. The reaction was initiated by the addition of cofactor cocktail, and the mixture was incubated in a shaking water bath at 37° C. Aliquots (100 μL) were withdrawn at 0, 10, 20, 30, and 60 minutes. All samples were immediately combined with 400 uL of icecold 50/50 acetonitrile/H2O containing 0.1% formic acid and internal standard to terminate the reaction. The samples were then mixed and centrifuged to precipitate proteins. Calibration standards were prepared in matched matrix. All samples and standards were assayed by LC-MS/MS using electrospray ionization for both the dosed prodrug I-9 and the expected drug (PEA). Analytical conditions are outlined in Appendix 4-1. The test article concentration at each time point was compared to the test article concentration at time 0 to determine the percent remaining at each time point. Half-lives were calculated using GraphPad software, fitting to single-phase exponential decay equation.
(§2) Reaction mixture, minus cofactors, was prepared as described below. Test article was added into the reaction mixture at a final concentration of 1 μM. […] An aliquot of the reaction mixture (without cofactor cocktail) was equilibrated in a shaking water bath at 37° C. for 3 minutes. The reaction was initiated by the addition of cofactor cocktail, and the mixture was incubated in a shaking water bath at 37° C. Aliquots (100 μL) were withdrawn at 0, 10, 20, 30, and 60 minutes. Test article samples were immediately combined with 300 μL of ice-cold acetonitrile containing 1% formic acid. Control samples were immediately combined with 400 μL of ice-cold 50/50 acetonitrile (ACN)/dH2O containing 0.1% formic acid and internal standard to terminate the reaction. Samples were then mixed and centrifuged to precipitate proteins. Calibration standards were prepared in matched matrix. Samples and standards were assayed by LC-MS/MS using electrospray ionization for both the dosed prodrug and the expected drug (PEA). Analytical conditions are outlined in Appendix 8-1. Test article concentration at each time point was compared to test article concentration at time 0 to determine the percent remaining at each time point. Halflives were calculated using GraphPad software, fitting to a single-phase exponential decay equation.
as §2, with “for 5” for “for 3”, “minutes. Reaction” for “minutes. The reaction”, “and” for “and the”, “both” for “both the”, “Appendix 10-1.” for “Appendix 8-1.”
Reaction mixture, minus cofactors, was prepared as described below.

The mark [3] stands for this setting: male, Sprague-Dawley, rat, 0 min, 1 μM.
Setting [4] is: male, Sprague-Dawley, rat, 10 min, 1 μM.
Setting [5] is: male, Sprague-Dawley, rat, 20 min, 1 μM.
[6] abbreviates: male, Sprague-Dawley, rat, 30 min, 1 μM.
Where [7] appears, read: male, Sprague-Dawley, rat, 60 min, 1 μM.
Where [8] appears, read: male, Sprague-Dawley, rat, s9, 0 h, 1 μM.
[9] abbreviates: male, Sprague-Dawley, rat, s9, 10 min, 1 μM.
Where [10] appears, read: male, Sprague-Dawley, rat, s9, 20 min, 1 μM.
[11] abbreviates: male, Sprague-Dawley, rat, s9, 0.5 h, 1 μM.
The mark [12] stands for this setting: male, Sprague-Dawley, rat, s9, 1 h, 1 μM.
Where [13] appears, read: male, Sprague-Dawley, rat, s9, CLint.
Setting [14] is: male, Sprague-Dawley, rat, s9, Half-life.
The mark [15] stands for this setting: control compound, rat intestinal S9 fraction.

On to `CCCCCCCCCCCCCCCC(=O)NCCOC(=O)CCC(=O)OC(CO)CO` [Compound I-8], for which the results for the half-life at 1 μM in data set [1] and in data set [2] (setting [14]) were below 0.0167 h and 0.233 h, respectively. The “% Remaining of Initial” value in data set [1] (human plasma, 0 min) is 100%; in data set [1] (human plasma, 15 min), below 1.0%; in data set [1] (human plasma, 30 min) it was below 1.0%; in data set [1] (human plasma, 60 min) it was below 1.0%; in data set [1] (human plasma, 120 min), below 1.0%; in data set [2] (setting [8]), 100%. In addition, the “% Remaining of Initial” value in data set [2] (setting [9]) was found to be 58%; in data set [2] (setting [10]) it was 37%; in data set [2] (setting [11]), 22%; in data set [2] (setting [12]), 6.2%. The “Measured concentration of PEA (analyte)” value in data set [2] (setting [3]) is 0.022 µM; in data set [2] (setting [4]) it was 0.22 µM; in data set [2] (setting [5]), 0.34 µM; in data set [2] (setting [6]), 0.42 µM; in data set [2] (setting [7]) it was 0.45 µM. This compound also had a microsomal CLint at 1 μM in data set [2] (setting [13]) of 50.3 µL/min/mg.

Turning to `CCCCCCCCCCCCCCCC(=O)NCCOC(=O)CCC(=O)OC(COC(=O)CCC)COC(=O)CCC` [Compound I-16], the half-life at 1 μM was 0.517 h in data set [1] and below 0.0167 h in data set [2] (setting [14]). Moreover, the “% Remaining of Initial” value is 100% in data set [1] (human plasma, 0 min); 78% in data set [1] (human plasma, 15 min); 51% in data set [1] (human plasma, 30 min); 24% in data set [1] (human plasma, 60 min); 5.8% in data set [1] (human plasma, 120 min); 100% in data set [2] (setting [8]). Besides, the “% Remaining of Initial” value in data set [2] (setting [9]), in data set [2] (setting [10]), in data set [2] (setting [11]) and in data set [2] (setting [12]) was below 1.0% throughout. In addition, the “Measured concentration of PEA (analyte)” value is 0 µM in data set [2] (setting [3]); 0.20 µM in data set [2] (setting [4]); 0.28 µM in data set [2] (setting [5]); 0.34 µM in data set [2] (setting [6]); 0.38 µM in data set [2] (setting [7]). In data set [2] (setting [13]), this compound gave a microsomal CLint at 1 μM above 691 µL/min/mg.

As for `CCCCCCCCCCCCCCCC(=O)NCCOC(=O)CCC(=O)OC[C@H]1O[C@@](CO)(O[C@H]2O[C@H](CO)[C@@H](O)[C@H](O)[C@H]2O)[C@@H](O)[C@@H]1O` [Compound I-7], the half-life at 1 μM in data set [1] (test article 1 μM, 37° C., pH 7.4) is below 0.0167 h. Besides, the “% Remaining of Initial (n = 1), 0 min” value in data set [1] (human plasma, test article 1 μM, 37° C., pH 7.4, 0 min) was found to be 100%; in data set [2] (setting [8]) it was 100%. The “% Remaining of Initial (n = 1), 15 min” value in data set [1] (human plasma, test article 1 μM, 37° C., pH 7.4, 15 min) is recorded as below 1.0%. Further, the “% Remaining of Initial (n = 1), 30 min” value in data set [1] (human plasma, test article 1 μM, 37° C., pH 7.4, 30 min) was below 1.0%; in data set [2] (setting [11]), 31%. Further, the “% Remaining of Initial (n = 1), 60 min” value is listed as below 1.0% in data set [1] (human plasma, test article 1 μM, 37° C., pH 7.4, 60 min) and 13% in data set [2] (setting [12]). In data set [1] (human plasma, test article 1 μM, 37° C., pH 7.4, 120 min), the “% Remaining of Initial (n = 1), 120 min” value is reported as below 1.0%. The “Concentration (μM) of analyte PEA, 0 min” value in data set [2] (setting [3]) was determined as 0.042 µM. Further, in data set [2] (setting [4]), the “Concentration (μM) of analyte PEA, 10 min” value was found to be 0.24 µM. For the same compound, the “Concentration (μM) of analyte PEA, 20 min” value in data set [2] (setting [5]) amounted to 0.35 µM. In data set [2] (setting [6]), the “Concentration (μM) of analyte PEA, 30 min” value stood at 0.47 µM. In data set [2] (setting [7]), the “Concentration (μM) of analyte PEA, 60 min” value turned out to be 0.60 µM. In addition, the “% Remaining of Initial (n = 1), 10 min” value in data set [2] (setting [9]) turned out to be 60%. The “% Remaining of Initial (n = 1), 20 min” value in data set [2] (setting [10]) is on record as 37%.

In turn, `C[C@]12CC[C@H]3[C@@H](CCC4=CC(=O)CC[C@@]43C)[C@@H]1CC[C@@H]2O` [Testosterone, testosterone, reference compound] had a CLin in data set [2] (setting [15]) below 0.0116 ml/min/mg protein. For the same compound, the “CLin, calculated value in parentheses” value in data set [2] (setting [15]) is reported as 0.0068 ml/min/mg protein. Further, the microsomal CLint in data set [2] (male, Sprague-Dawley, rat, s9, CLint (ml/min/mg protein), calculated value in parentheses, control compound, rat intestinal S9 fraction, calculated value beyond duration of experiment) was 6.52 µL/min/mg; in data set [2] (male, Sprague-Dawley, rat, s9, CLint (ml/min/mg protein), control compound, rat intestinal S9 fraction) it was below 11.6 µL/min/mg; in data set [2] (male, Sprague-Dawley, rat, s9, CLint, Control Compound, Rat intestinal S9 fraction), below 11.6 µL/min/mg; in data set [2] (male, Sprague-Dawley, rat, s9, CLint, Rat intestinal S9 fraction, control compound), below 11.6 µL/min/mg; in data set [2] (male, Sprague-Dawley, rat, s9, Clint, control compound, Example 4 control run), 5.97 µL/min/mg. Besides, the half-life in data set [2] (male, Sprague-Dawley, rat, s9, Half-life (min), calculated value in parentheses, control compound, rat intestinal S9 fraction, calculated value beyond duration of experiment) is 1.77 h; in data set [2] (male, Sprague-Dawley, rat, s9, Half-life (min), control compound, rat intestinal S9 fraction), above 1 h; in data set [2] (male, Sprague-Dawley, rat, s9, Half-life, Control Compound, Rat intestinal S9 fraction) it was above 1 h; in data set [2] (male, Sprague-Dawley, rat, s9, Half-life, calculated value in parentheses, control compound, rat intestinal S9 fraction) it was 1.7 h; in data set [2] (male, Sprague-Dawley, rat, s9, Half-life, control compound, Example 4 control run), 1.93 h; in data set [2] (male, Sprague-Dawley, rat, s9, Half-life, control compound, rat intestinal S9 fraction), above 1 h. For the same compound, the half-life at 1 μM in data set [2] (male, Sprague-Dawley, rat, s9, Half-life, Rat intestinal S9 fraction) is above 1 h.
